This note sets out measurements from paper PMC10515483, “Structure–Reactivity Studies of 2-Sulfonylpyrimidines Allow Selective Protein Arylation” (Bioconjugate Chemistry, 2023).

Values after ≈ are worked out from the molar mass of the structure shown. Some results are limits rather than exact numbers.

Data set [1] can be described thus: GSH arylation rate constants (NMR; UV-vis for fast warheads). The following applies: for k: Table S8, rate constants obtained at pH = 7; for k change (vs ref): ratio to rate constant of 4q, acceleration (+) or deceleration (-); for k/kref / ΔΔG≠1exp: relative to 4q; for ΔΔG≠1exp: via -RTln(k/kref); for times less reactive than 4q: GSH; for reactivity with GSH (in words): up to 6 h. Also on record: key to rate constant (k) for the reaction with GSH / k: NR = no reaction. The format is physicochemical. An excerpt: We employed nuclear magnetic resonance (NMR) and UV–vis to quantify the reactivity of our 2-SP derivatives and other representative electrophiles (Figure 2) against cysteine. NMR allowed straightforward determination of reaction rate constants through dual monitoring of the consumption of the warhead and formation of the product by integration of their respective NMR signals (Figures S1–S3). It simultaneously provided a direct readout on reaction specificity and hydrolytic stability of the warhead. All measurements were carried out in KPi buffer in the presence of 5% d^6-dmso, which is generally well-tolerated by a wide range of proteins in in vitro studies. N-acetylcysteine methylester (NACME) and L-glutathione (GSH) are useful model cysteine nucleophiles for in vitro studies of electrophilic agents.[32] Mixing reference electrophile 2-methylsulfonylpyrimidine (4q) with NACME or GSH in a 1:10 ratio (pseudo-first-order conditions) allowed extraction of accurate and reproducible second order rate constants (k).
Figure 3 In vitro determination of electrophilic reactivity of compounds. (A) NMR assay setup for warhead/GSH reaction rate constant determination and chemoselectivity monitoring, over a 6 h time scale. Purple bead = GSH. Hydrolytic stability was determined in the same way over 36 h. d^4-Trimethylsilylpropanoate (TMSP, blue box) was used as an internal standard for monitoring the warhead solubility. Second-order reaction rate constants (k) were obtained from their pseudo-first-order counterparts (k′), by time-dependent normalized integration of the disappearing warhead signals. […] (B) Experimental second-order rate constants (y axis, log10 scale) for the reaction of representative 2-SP derivatives (left, 11 out of ca. 40 examples) and previously reported heteroarylsulfones (right) with GSH in a KPi buffer, pH 7.0, 20 °C. All rate constants were calculated as an average of at least two independent measurements. Numerical values and standard deviations at both pH 7.0 and 6.5, along with a full list of 2-SPs and other electrophile types tested, are presented in Tables S2–S6 and Figure S4. The horizontal dashed line marks the reaction rate of 2-methylsulfonylpyrimidine at pH 7.0, as a reference when comparing with other reagents (see main text).
To establish an accurate structure–reactivity profile of 2-SP reagents, we systematically determined their reaction rate constants for the arylation of GSH by NMR, at pH 7.0 and 6.5. This was a prerequisite to (i) quantify the influence of substitution on reaction rates; (ii) accurately assess the tunability and chemoselectivity of 2-SPs for cysteine arylation; (iii) determine the influence of pH on the reaction rates to further inform on the precise reaction mechanism; and (iv) benchmark the overall performance of 2-SPs with those of previously reported fast reacting heteroarylsulfones and other common cysteine reactive warheads (Figure 2C,D).

Data set [2] in a line: Solubility in KPi buffer by NMR with TMSP internal standard. The settings on record: 50 mM KPi aqueous buffer, pH 7, aqueous with cosolvent or surfactant or cyclodextrin, kinetic from dmso stock.
Data set [3] is described as follows: Hydrolytic stability in KPi buffer without thiol (NMR). The format is physicochemical. The following applies: for % degradation: over 12 hours, 50 mM KPi, footnote a: crashing out of solution, no degradation product; for hydrolysis in aqueous buffer (in words): buffer in the absence of GSH. Here is the method: NMR studies: rate constant determination and hydrolytic stability. 850 µL of 50 mM Kpi buffer solution (pH 8.2 or 7), 20 µL of the appropriate pyrimidine stock s olution (100 mM in DMSO -d6), 20 µL of TMSP stock solution (22.2 mM in DI water), 30 µL DMSO -d6, and 80 µL of GSH stock solution (0.25 M in DI water, reactivity only) were successively added/mixed at room temperature, final pH 7.0 or 6.5 (Table S1). 600 µL of this freshly prepared solution was poured into an NMR tube and immediately […]
transferred to the NMR instrument for acquisition. 1H spectra (16 scans) were recorded every 10 minutes under water suppression conditions. Following acquisition, spectra were analysed using […]
order reaction rate constants (k’).

The mark [4] stands for this setting: pH 6.5, by NMR, KPi buffer, 5% DMSO-d6.
Where [5] appears, read: pH 7.0, by NMR, KPi buffer, 5% DMSO-d6.

In general, melting point refers to the temperature, or range, at which the solid turns liquid. The compound `CSc1ncc(-c2ccccc2)cn1` [2p] yielded a melting point of 98 °C. Moreover, in data set [1] (setting [4]), the “rate constant (k) for the reaction with GSH” value (shortened to “rate constant (k)”) is on record as “NR”. Besides, the “rate constant (k)” value in data set [1] (setting [5]) is given as “NR”.
For `CSc1ncc(I)cn1` [2u], the melting point came out at 104 °C. Moreover, in data set [1] (setting [4]), the “rate constant (k)” value is “NR”. Further, the “rate constant (k)” value in data set [1] (setting [5]) is listed as “NR”.
The compound `CSc1ncc(C(=O)O)cn1` [2v] had a melting point of 251 °C. Further, in data set [1] (setting [4]), the “rate constant (k)” value is “NR”. Moreover, the “rate constant (k)” value in data set [1] (setting [5]) is reported as “NR”.
Compound `CSc1ncc([N+](=O)[O-])cn1` [2w] showed a melting point of 84 °C. In data set [1] (setting [4]), this compound showed a rate constant (k) for the reaction with GSH of 0.00025 ± 0.00016 M⁻¹ s⁻¹. Moreover, in data set [1] (setting [5]), the rate constant (k) for the reaction with GSH came to 0.0034 ± 0.0016 M⁻¹ s⁻¹.
For the compound `CS(=O)(=O)c1ncc(N)cn1` [4m], the melting point was determined as 138 °C. The “rate constant (k)” value in data set [1] (setting [4]) is reported as “NR”. Besides, the “second order rate constant k with GSH” value in data set [1] (pH 7.0, KPi buffer) is < 5.0 × 10^–5 M^–1 s^–1. Besides, the “rate constant (k)” value in data set [1] (setting [5]) is given as “NR”.
The solubility is how much of the substance goes into solution per volume. On to `Cc1cnc(S(C)(=O)=O)nc1` [4o], for which the solubility in data set [2] is at least 2000 µM. The “% degradation” value in data set [3] (pH 8.2) is under 5%. In addition, in data set [1], the k came out at 0.0017 M⁻¹ s⁻¹, the k/kref was determined as 0.068 and the “ΔΔG≠1exp” value is 1.6 kcal/mol. Further, the “rate constant (k)” value in data set [1] (setting [4]) is recorded as “NR”. In data set [1] (setting [5]), this compound registered a rate constant (k) for the reaction with GSH of 0.0017 ± 0.0015 M⁻¹ s⁻¹. Moreover, in data set [1] (pH 7.0), the “k change (vs ref)” value is given as -15 fold.
`CS(=O)(=O)c1ncc(Cl)cn1` [4s]: the solubility in data set [2] is at least 2000 µM. The “% degradation” value in data set [3] (pH 8.2) is given as 7%. In data set [1], the k worked out at 0.19 M⁻¹ s⁻¹, the k/kref stood at 7.6 and the “ΔΔG≠1exp” value is -1.2 kcal/mol. The rate constant (k) for the reaction with GSH in data set [1] (setting [4]) worked out at 0.027 ± 0.012 M⁻¹ s⁻¹. Besides, the rate constant (k) for the reaction with GSH in data set [1] (setting [5]) amounted to 0.19 ± 0.11 M⁻¹ s⁻¹. Moreover, the “k change (vs ref)” value in data set [1] (pH 7.0) is “+8 fold”.
As for `CS(=O)(=O)c1ncc([N+](=O)[O-])cn1` [4w], the melting point was found to be 113 °C. This compound displayed a solubility in data set [2] of about 130 µM (≈ 26.4 µg/mL). The “hydrolysis in aqueous buffer (in words)” value in data set [3] is “partial, slow hydrolysis”. In addition, the rate constant (k) for the reaction with GSH in data set [1] (pH 6.5, measured by UV titrations) came to 15 ± 0.4 M⁻¹ s⁻¹. This compound displayed a rate constant (k) for the reaction with GSH in data set [1] (pH 7.0, measured by UV titrations) of 47 ± 1 M⁻¹ s⁻¹. Also, the “k change (vs ref)” value in data set [1] (pH 7.0) is “+1,880 fold”.
In the case of `CS(=O)(=O)c1nnnn1-c1ccccc1` [compound 7, 1-phenyl 5-methylsulfonyl tetrazole, reference compound], the solubility in data set [2] is at least 2000 µM. Besides, the “% degradation” value in data set [3] (pH 7.0) is reported as under 5%; in data set [3] (pH 8.2), 8%. The “second order rate constant k with GSH” value in data set [1] (pH 7.0, KPi buffer) was “≈ 4.3 M^–1 s^–1”. The “k change (vs ref)” value in data set [1] (pH 7.0) is “+170 fold”.
`CS(=O)(=O)c1nc2ccccc2s1` [compound 9, 2-Methysulfonylbenzothiazole, reference compound] registered a solubility in data set [2] of at least 2000 µM. For the same compound, the “% degradation” value in data set [3] (pH 7.0) is recorded as 15%. Moreover, in data set [3] (pH 8.2), the “% degradation” value was under 5%. For the same compound, in data set [1], the k stood at 0.23 M⁻¹ s⁻¹, the k/kref is reported as 9.2 and the “ΔΔG≠1exp” value was -1.31 kcal/mol. In data set [1] (setting [4]), this compound had a rate constant (k) for the reaction with GSH of 0.063 ± 0.023 M⁻¹ s⁻¹. In data set [1] (pH 7.0, KPi buffer), the “second order rate constant k with GSH” value is “≈ 0.23 M^–1 s^–1”. The compound further showed a rate constant (k) for the reaction with GSH in data set [1] (setting [5]) of 0.23 ± 0.035 M⁻¹ s⁻¹. The “k change (vs ref)” value in data set [1] (pH 7.0) is “+9 fold”.
In data set [2], `Cc1cc(C)c(C#N)c(S(C)(=O)=O)n1` [compound 11, 4,6-dimethyl-2-(methylsulfonyl)nicotinonitrile, reference compound] yielded a solubility of at least 2000 µM. In data set [1] (pH 7.0), the “times less reactive than 4q” value is “ca. 5 times” and the “k change (vs ref)” value was -11 fold. In data set [1] (setting [4]), this compound yielded a rate constant (k) for the reaction with GSH of 0.00045 ± 5e-05 M⁻¹ s⁻¹. The compound further yielded a rate constant (k) for the reaction with GSH in data set [1] (setting [5]) of 0.0023 ± 0.00025 M⁻¹ s⁻¹.
Compound `Cc1cc(C)c([N+](=O)[O-])c(S(C)(=O)=O)n1` [compound 12, 4,6-dimethyl-2-(methylsulfonyl)-3-nitropyridine, reference compound] gave a solubility in data set [2] of at least 2000 µM. Further, the “% degradation” value in data set [3] (pH 7.0) is under 5%. In addition, the “% degradation” value in data set [3] (pH 8.2) was under 5%. Also, in data set [1] (pH 7.0), the “times less reactive than 4q” value is “ca. 5 times” and the “k change (vs ref)” value was -9 fold. For the same compound, in data set [1], the k came out at 0.0028 M⁻¹ s⁻¹, the k/kref amounted to 0.11 and the “ΔΔG≠1exp” value came to 1.29 kcal/mol. Besides, in data set [1] (setting [4]), the rate constant (k) for the reaction with GSH was 0.00075 ± 0.00025 M⁻¹ s⁻¹. Also, the rate constant (k) for the reaction with GSH in data set [1] (setting [5]) is 0.0028 ± 0.00025 M⁻¹ s⁻¹.
As to `CS(=O)(=O)c1cnccn1` [compound 18], the “reactivity with GSH (in words)” value in data set [1] (KPi buffer) is listed as “completely switched off reactivity”. Further, the “rate constant (k)” value in data set [1] (setting [4]) and in data set [1] (setting [5]) was “NR” in each case.
Turning to `COc1nc(OC)nc(S(C)(=O)=O)n1` [compound 19, 2,4-dimethoxy-6-(methylsulfonyl)-1,3,5-triazine], in data set [3], the “hydrolysis in aqueous buffer (in words)” value was “rapid hydrolysis in aqueous buffers or by trace/ambient moisture”. Besides, the k result in data set [1] is reported as “unstable”.
Take `O=C1C=CC(=O)N1Cc1ccccc1` [compound 21, N-benzylmaleimide, reference compound]: the “reactivity with GSH (in words)” value in data set [1] (KPi buffer) was “heterogeneous mixture of succinimidyl products”. For the same compound, in data set [1] (pH 7.0, KPi buffer), the “second order rate constant k with GSH” value is reported as over 0.5 M^–1 s^–1. For the same compound, the “rate constant (k)” value in data set [1] (setting [5]) was “Multiple products”.
Consider `C=CC(=O)Nc1ccccc1` [compound 22, reference compound], for which the “reactivity with GSH (in words)” value in data set [1] (KPi buffer) is “none”. For the same compound, the “rate constant (k)” value in data set [1] (setting [5]) is on record as “NR”.
On to `OB1OCc2ccccc21` [compound 23, reference compound], for which, in data set [1] (pH 7), the “rate constant (k)” value is “NR”.
Turning to `c1ccc(C2CO2)cc1` (stereo not drawn) [compound 24, reference compound], the “reactivity with GSH (in words)” value in data set [1] (KPi buffer) was “none”. Besides, the “rate constant (k)” value in data set [1] (setting [5]) is “NR”.
As to `O=C(c1ccccc1)C(F)(F)F` [compound 25, reference compound], the “reactivity with GSH (in words)” value in data set [1] (KPi buffer) is “none”. Moreover, the “rate constant (k)” value in data set [1] (setting [5]) is “NR”.
Turning to `O=S(=O)(F)c1ccccc1` [compound 26, reference compound], in data set [1] (KPi buffer), the “reactivity with GSH (in words)” value is reported as “none”. Also, the “rate constant (k)” value in data set [1] (setting [5]) was “NR”.
Regarding `CC1(C)S[C@@H]2[C@H](N)C(=O)N2[C@H]1C(=O)O` [compound 27, reference compound], the “reactivity with GSH (in words)” value in data set [1] (KPi buffer) is on record as “none”. In addition, the “rate constant (k)” value in data set [1] (setting [5]) was “NR”.
